Measured values from patent publication US20090233796A1, “HERBICIDAL COMPOSITION” (SYNGENTA CROP PROTECTION, INC., priority 2004, published 2009).

Experiments:
Type in all cases: in vivo
CYNODON DACTYLON = assay: Compound (A) with glyphosate, weed plots; conditions: 840 g/ha; 82 DAA; No. 2.1
Text: (§1) The compositions were formulated as an emulsifyable concentrate (EC).
(§2) The results in the table under each application are the percentage of the plants that were killed.

DIGITARIA SANGUINALIS [1] = assay: Compound (A) with glyphosate, weed plots; conditions: 840 g/ha; 52 DAA; No. 2.2
Text: as §1, §2

HORDEUM PUSILLUM = assay: Compound (A) with glyphosate, weed plots; conditions: 840 g/ha; 13 DAA; No. 2.6
Text: as §1, §2

ABUTILON THEOPHRASTI [2] = assay: Compound (A) with nicosulfuron, weed plots; conditions: 35 g/ha; 27 DAA; No. 3.13
Procedure: (§3) In these tests, various weeds were treated with nicosulfuron alone at a rate equivalent to 35 g per hectare, […] and Compound (A) at rates equivalent to the sum of these. The compositions were formulated as an emulsifyable concentrate (EC).
as §2

AMBROSIA TRIFIDA [3] = assay: Compound (A) with nicosulfuron, weed plots; conditions: 35 g/ha; 28 DAA; No. 3.15
Procedure: as §3, §2

BRACHIARIA PLATYPHYLLA = assay: Compound (A) with nicosulfuron, weed plots; conditions: 35 g/ha
Procedure: as §3, §2

CYPERUS ESCULENTUS = assay: Compound (A) with nicosulfuron, weed plots; conditions: 35 g/ha
Procedure: as §3, §2

C[…]. = assay: Compound (A) with nicosulfuron, weed plots; conditions: 35 g/ha; 5 DAA; No. 3.8
Procedure: as §3, §2

DIGITARIA SANGUINALIS [4] = assay: Compound (A) with nicosulfuron, weed plots; conditions: 35 g/ha
Procedure: as §3, §2

IPOMOEA SP. [5] = assay: Compound (A) with nicosulfuron, weed plots; conditions: 35 g/ha; 5 DAA; No. 3.10
Procedure: as §3, §2

SESBANIA EXALTATA [6] = assay: Compound (A) with nicosulfuron, weed plots; conditions: 35 g/ha
Procedure: as §3, §2

SETARIA SP. [7] = assay: Compound (A) with nicosulfuron, weed plots; conditions: 35 g/ha; 21 DAA; No. 3.4
Procedure: as §3, §2

SETARIA VIRIDIS [8] = assay: Compound (A) with nicosulfuron, weed plots; conditions: 35 g/ha; 4 DAA; No. 3.11
Procedure: as §3, §2

[…] = Compound (A) with nicosulfuron, weed plots; conditions: 35 g/ha; 58 DAA; No. 3.12
Procedure: as §3, §2

COMMELINA SP. = assay: Compound (A) with nicosulfuron, weed plots; conditions: 35 g/ha
Text: In these tests, […] and Compound (A) at rates equivalent to the sum of these. The compositions were formulated as an emulsifyable concentrate (EC).
as §2

ABUTILON THEOPHRASTI [9] = assay: Compound (A) with S-metolachlor, weed plots; conditions: 1420 g/ha
Text: […] The compositions were formulated as an emulsifyable concentrate (EC).
as §2

AMBROSIA ARTEMISIIFOLIA = assay: Compound (A) with S-metolachlor, weed plots; conditions: 1420 g/ha
Procedure: (§4) In these tests, various weeds were treated with S-metolachlor (SMOC) alone at an application rate equivalent to 1420 g per hectare, Compound (A) alone at rates equivalent to 20 g per hectare and […] and with mixtures of S-metolachlor and the Compound (A) at rates equivalent to the sum of these. The compositions were formulated as an emulsifyable concentrate (EC).
as §2

AMBROSIA TRIFIDA [10] = assay: Compound (A) with S-metolachlor, weed plots; conditions: 1420 g/ha
Procedure: as §4, §2

C[…] = assay: Compound (A) with S-metolachlor, weed plots; conditions: 1420 g/ha
Procedure: as §4, §2

E[…]-GALLI [11] = assay: Compound (A) with S-metolachlor, weed plots; conditions: 1420 g/ha; 28 DAA; Trial 4.1
Procedure: as §4, §2

IPOMOEA SP. [12] = assay: Compound (A) with S-metolachlor, weed plots; conditions: 1420 g/ha
Procedure: as §4, §2

POLYGONUM PENSYLVANICUM = assay: Compound (A) with S-metolachlor, weed plots; conditions: 1420 g/ha; 56 DAA; Trial 4.14
Procedure: as §4, §2

SESBANIA EXALTATA [13] = assay: Compound (A) with S-metolachlor, weed plots; conditions: 1420 g/ha; 56 DAA; Trial 4.2
Procedure: as §4, §2

XANTHIUM STRUMARIUM = assay: Compound (A) with S-metolachlor, weed plots; conditions: 1420 g/ha
Procedure: as §4, §2

STELLARIA MEDIA = assay: Compound (A) with triasulfuron, weed plots; conditions: 26 g per hectare; 30 DAA; No. 3.1
Procedure: In these tests, various weeds were treated with triasulfuron alone at a rate equivalent to 26 g per hectare, Compound (A) alone at a rate equivalent to 10 g per hectare, and to a mixture of triasulfuron and Compound (A) at rates equivalent to the sum of these. The compositions were formulated as an emulsifyable concentrate (EC).
as §2

CONYZA SP. = assay: Compound (A) with paraquat, weed plots; conditions: 700 g/ha, 5 DAA
Procedure: (§5) In these tests, various weeds were treated with paraquat alone at rates equivalent to 700 g per hectare and 840 g per hectare, compound (A) alone at rates equivalent to 10 g per hectare and 20 g per hectare, and with a mixture of paraquat and compound (A) at rates equivalent to the sum of these. The compositions were formulated as an emulsifyable concentrate (EC).
(§6) The results in the table under each application are the percentage of the weeds plants that were killed.

CYPERUS ROTUNDUS = assay: Compound (A) with paraquat, weed plots; conditions: 840 g/ha; 56 DAA; No. 1.11
Procedure: as §5, §6

DIGITARIA CILIARIS = assay: Compound (A) with paraquat, weed plots; conditions: 700 g/ha; 51 DAA; No. 1.7
Procedure: as §5, §6

E[…]-GALLI [14] = assay: Compound (A) with paraquat, weed plots; conditions: 700 g/ha; 51 DAA; No. 1.8
Procedure: as §5, §6

LAMIUM PURPUREUM = assay: Compound (A) with paraquat, weed plots; conditions: 700 g/ha; 2 DAA; No. 1.5
Procedure: as §5, §6

LOLIUM RIGIDUM = assay: Compound (A) with paraquat, weed plots; conditions: 700 g/ha; 41 DAA; No. 1.4
Procedure: as §5, §6

SETARIA SP. [15] = assay: Compound (A) with paraquat, weed plots; conditions: 700 g/ha; 27 DAA; No. 1.2
Procedure: as §5, §6

SETARIA VIRIDIS [16] = assay: Compound (A) with paraquat, weed plots; conditions: 700 g/ha; 43 DAA; No. 1.3
Procedure: as §5, §6

SONCHUS ASPER = assay: Compound (A) with paraquat, weed plots; conditions: 840 g/ha; 32 DAA; No. 1.10
Procedure: as §5, §6

VERONICA PERSICA = assay: Compound (A) with paraquat, weed plots; conditions: 700 g/ha; 69 DAA; No. 1.6
Procedure: as §5, §6

Structure (SMILES): O=C(O)CNCP(=O)(O)O [Glyphosate, glyphosate, reference compound]
- percentage of the plants that were killed (CYNODON DACTYLON): 0%
- percentage of the plants that were killed (DIGITARIA SANGUINALIS [1]): 0%
- percentage of the plants that were killed (HORDEUM PUSILLUM): 30%

Structure (SMILES): COc1cc(OC)nc(NC(=O)NS(=O)(=O)c2ncccc2C(=O)N(C)C)n1 [Nicosulfuron, nicosulfuron, reference compound]
- percentage of the plants that were killed (ABUTILON THEOPHRASTI [2]): 50%
- percentage of the plants that were killed (AMBROSIA TRIFIDA [3]): 0%
- percentage of the plants that were killed (BRACHIARIA PLATYPHYLLA; 24 DAA, No. 3.16): 35%
- percentage of the plants that were killed (BRACHIARIA PLATYPHYLLA; 30 DAA, No. 3.17): 30%
- percentage of the plants that were killed (CYPERUS ESCULENTUS; 7 DAA, No. 3.7): 0%
- percentage of the plants that were killed (CYPERUS ESCULENTUS; 12 DAA, No. 3.9): 0%
- percentage of the plants that were killed (C[…].): 50%
- percentage of the plants that were killed (DIGITARIA SANGUINALIS [4]; 4 DAA, No. 3.6): 10%
- percentage of the plants that were killed (DIGITARIA SANGUINALIS [4]; 5 DAA, No. 3.14): 0%
- percentage of the plants that were killed (DIGITARIA SANGUINALIS [4]; 21 DAA, No. 3.5): 70%
- percentage of the plants that were killed (IPOMOEA SP. [5]): 0%
- percentage of the plants that were killed (SESBANIA EXALTATA [6]; 44 DAA, No. 3.3): 10%
- percentage of the plants that were killed (SESBANIA EXALTATA [6]; 45 DAA, No. 3.2): 0%
- percentage of the plants that were killed (SETARIA SP. [7]): 70%
- percentage of the plants that were killed (SETARIA VIRIDIS [8]): 20%
- percentage of the plants that were killed ([…]): 0%
- percentage of the plants that were killed (COMMELINA SP.; 10 DAA, No. 3.18): 0%
- percentage of the plants that were killed (COMMELINA SP.; 17 DAA, No. 3.19): 0%

Structure (SMILES): CCc1cccc(C)c1N(C(=O)CCl)[C@@H](C)COC [SMOC, S-metolachlor, reference compound]
- percentage of the plants that were killed (ABUTILON THEOPHRASTI [9]; 15 DAA, Trial 4.12): 65%
- percentage of the plants that were killed (ABUTILON THEOPHRASTI [9]; 23 DAA, Trial 4.3): 13%
- percentage of the plants that were killed (ABUTILON THEOPHRASTI [9]; 38 DAA, Trial 4.4): 0%
- percentage of the plants that were killed (ABUTILON THEOPHRASTI [9]; 56 DAA, Trial 4.13): 0%
- percentage of the plants that were killed (AMBROSIA ARTEMISIIFOLIA; 25 DAA, Trial 4.7): 30%
- percentage of the plants that were killed (AMBROSIA ARTEMISIIFOLIA; 49 DAA, Trial 4.8): 30%
- percentage of the plants that were killed (AMBROSIA TRIFIDA [10]; 8 DAA, Trial 4.16): 25%
- percentage of the plants that were killed (AMBROSIA TRIFIDA [10]; 42 DAA, Trial 4.15): 25%
- percentage of the plants that were killed (C[…]; 26 DAA, Trial 4.5): 0%
- percentage of the plants that were killed (C[…]; 54 DAA, Trial 4.6): 0%
- percentage of the plants that were killed (C[…]; 56 DAA, Trial 4.11): 0%
- percentage of the plants that were killed (E[…]-GALLI [11]): 75%
- percentage of the plants that were killed (IPOMOEA SP. [12]; 25 DAA, Trial 4.9): 0%
- percentage of the plants that were killed (IPOMOEA SP. [12]; 49 DAA, Trial 4.10): 0%
- percentage of the plants that were killed (POLYGONUM PENSYLVANICUM): 0%
- percentage of the plants that were killed (SESBANIA EXALTATA [13]): 20%
- percentage of the plants that were killed (XANTHIUM STRUMARIUM; 26 DAA, Trial 4.17): 38%
- percentage of the plants that were killed (XANTHIUM STRUMARIUM; 42 DAA, Trial 4.18): 30%

Structure (SMILES): COc1nc(C)nc(NC(=O)NS(=O)(=O)c2ccccc2OCCCl)n1 [Triasulfuron, triasulfuron, reference compound]
- percentage of the plants that were killed (STELLARIA MEDIA): 25%

Structure (SMILES): C[n+]1ccc(-c2cc[n+](C)cc2)cc1 [paraquat, reference compound]
- percentage of the weeds plants that were killed (CONYZA SP.; No. 1.1): 2%
- percentage of the weeds plants that were killed (CONYZA SP.; No. 1.9): 2%
- percentage of the weeds plants that were killed (CYPERUS ROTUNDUS): 65%
- percentage of the weeds plants that were killed (DIGITARIA CILIARIS): 0%
- percentage of the weeds plants that were killed (E[…]-GALLI [14]): 0%
- percentage of the weeds plants that were killed (LAMIUM PURPUREUM): 53%
- percentage of the weeds plants that were killed (LOLIUM RIGIDUM): 53%
- percentage of the weeds plants that were killed (SETARIA SP. [15]): 0%
- percentage of the weeds plants that were killed (SETARIA VIRIDIS [16]): 0%
- percentage of the weeds plants that were killed (SONCHUS ASPER): 0%
- percentage of the weeds plants that were killed (VERONICA PERSICA): 25%
